Like-named read-outs stand apart in the source and are kept apart here.
What was measured:
[1] = tested on: Puccinia graminis var. tritici; experiment: whole plant or invertebrate; format: in vivo; settings: 192 h, read-out: % control wheat rust in preventive test
[2] = tested on: Eggs of the beet armyworm (Spodoptera exigua); experiment: beet armyworm egg (ovicidal) test, % eggs failing to hatch; format: in vivo; settings: 72 h, three days, read-out: % Control (% eggs failing to hatch); for mortality at 1 %: 1% in acetone; for mortality at 200 ppm: 200 ppm in acetone
Experimental: Eggs of the beet armyworm (Spodoptera exigua), laid on cellophane discs each containing 50-75 eggs, were placed in petri dishes and lightly sprayed with 1% concentrations of the indicated compounds in acetone solution. Three days later, percent control (% eggs failing to hatch) was determined.
Eggs of the beet armyworm (Spodoptera exigua), laid on cellophane discs each containing 50-75 eggs, were placed in petri dishes and lightly sprayed with 200 ppm concentration of the indicated compounds in acetone solution. Three days later, percent control (% eggs failing to hatch) was determined.

Venturia inaequalis [3] = experiment: apple scab photostability test; format: in vivo; settings: xenon arc 3500 foot candles 16 hours, 10-12 days
Experimental: Compounds of this invention are dissolved in acetone in an amount equal to 6% of the final volume and then suspended at a concentration of 20 ppm in purified water containing 25 ppm of the surfactant Alkanol® XC (sodium alkyl naphthalene sulfonate). This suspension is sprayed to the point of run-off on apple seedlings. When the foliage is dry, the plants are exposed to 3500 foot candles of light from a xenon arc source for a period of 16 hours. This light source approximates the spectrum of natural sunlight, and is used to assess photostability of the compounds of this invention on plant foliage. The following day, the plants are inoculated with a spore suspension of the fungus Venturia inaequalis and incubated in a growth room for 10-12 days. Disease ratings are then made. […] Phytotoxicity in the form of foliar burn was observed on some of the plants in association with disease control.

Venturia inaequalis [4] = experiment: apple scab residual wash-off test; format: in vivo; settings: 1/2 inch simulated rainfall, 10-12 days
Experimental: (§1) Compounds of this invention are dissolved in acetone in an amount equal to 6% of the final volume and then suspended at a concentration of 20 ppm in purified water containing 25 ppm of the surfactant Alkanol® XC (sodium alkyl naphthalene sulfonate). This suspension is sprayed to the point of run-off on apple seedlings. The following day, 1/2 inch of simulated rainfall is applied to the foliage of the plants. When the foliage is dry, the plants are inoculated with a spore suspension of the fungus Venturia inaequalis and incubated in a growth room for 10-12 days. Disease ratings are then made. […] Phytotoxicity in the form of foliar burn was observed on the plants in association with disease control.

Erisyphe cichoracearum = experiment: cucumber powdery mildew curative test; format: in vivo; settings: Cucumis sativus, 144 h, sprayed day after inoculation, additional 6 days
From the text: Cucumber plants are inoculated with a spore suspension of the fungus Erisyphe cichoracearum and in a growth room overnight. The following day, the plants are sprayed to the point of run-off with a suspension prepared by dissolving compounds of this invention in acetone in an amount equal to 6% of the final volume and then suspended at a concentration of 20 ppm in purified water containing 25 ppm of the surfactant Alkanol® XC (sodium alkyl naphthalene sulfonate). Plants are returned to the growth room for an additional 6 days when disease ratings are then made. […] Phytotoxicity in the form of foliar burn or growth reduction was observed on some of the plants in association with disease control.

Pythium = Pythium infested soil test, cotton; format: in vivo; settings: 1.5 kg/ha, 8 days
From the text: (§2) Pythium infested soil was placed in a 900 cc cup. Compounds of this invention were mixed at a rate of 1.5 kg/ha in a section 2" wide×2" deep×4" long to simulate an in-the-row application. Five cotton seeds were planted in the treated soil. After 8 days, the cotton plants were removed and rated for disease control.

Erysiphe cichoracearum [5] = experiment: cucumber powdery mildew residual wash-off test; format: in vivo; settings: Golovinomyces cichoracearum, 168 h, 1/2 inch simulated rainfall, 7 days
Experimental: Compounds of this invention are dissolved in acetone in an amount equal to 6% of the final volume and then suspended at a concentration of 20 ppm in purified water containing 25 ppm of the surfactant Alkanol® XC (sodium alkyl naphthalene sulfonate). This suspension is sprayed to the point of run-off on cucumber seedlings. The following day, 1/2 inch of simulated rainfall is applied to the foliage of the plants. When the foliage is dry, the plants are inoculated with a spore suspension on the fungus Erysiphe cichoracearum and incubated in a growth room for 7 days. Disease ratings are then made.

Rhizoctonia solani = Rhizoctonia solani infested soil test, cotton; format: in vivo; settings: 192 h, 1.5 kg/ha, 8 days
From the text: as §2, with “Rhizoctonia solani-infested” for “Pythium infested”

Phytophthora infestans [6] = experiment: whole plant or invertebrate; format: in vivo; settings: in Solanum lycopersicum, 96 h, read-out: % control tomato late blight in a residual wash-off test
Erysiphe cichoracearum [7] = experiment: cucumber powdery mildew preventive test; format: in vivo; settings: Golovinomyces cichoracearum, 168 h, 7 days
Experimental: Compounds of this invention are dissolved in acetone in an amount equal to 6% of the final volume and then suspended at a concentration of 20 ppm in purified water containing 25 ppm of the surfactant Alkanol® XC (sodium alkyl naphthalene sulfonate). This suspension is sprayed to the point of run-off on cucumber seedlings. The following day, the plants are inoculated with a spore suspension of the fungus Erysiphe cichoracearum and incubated in a growth room for 7 days. Disease ratings are then made. […] Phytotoxicity in the form of foliar burn or growth reduction was observed on some of the plants in association with disease control.

[8] = tested on: Puccinia graminis var. tritici; experiment: whole plant or invertebrate; format: in vivo; settings: 192 h, read-out: % control wheat rust in residual wash-off test
[9] = tested on: Puccinia graminis var. tritici; experiment: whole plant or invertebrate; format: in vivo; settings: 192 h, read-out: % control wheat rust in a photostability test
adult houseflies = adult houseflies spray test; format: in vivo, housefly; settings: Musca domestica; 1% acetone solutions, 24 hours
From the text: Twenty adult houseflies were confined in each of several cylindrical stainless steel cages (7.5 cm D×4 cm high) with wire screens of the ends. These were sprayed with 1% acetone solutions of the indicated compounds.

Erysiphe cichoracearum [10] = experiment: cucumber powdery mildew photostability test; format: in vivo; settings: Golovinomyces cichoracearum, 168 h, xenon arc 3500 foot candles 16 hours, 7 days
Experimental: Compounds of this invention are dissolved in acetone in an amount equal to 6% of the final volume and then suspended at a concentration of 20 ppm in purified water containing 25 ppm of the surfactant Alkanol® XC (sodium alkyl naphthalene sulfonate). This suspension is sprayed to the point of run-off in cucumber seedlings. When the foliage is dry, the plants are exposed to 3500 foot candles of light from a xenon arc source for a period of 16 hours. This light source approximates the spectrum of natural sunlight, and is used to assess photostability of the compounds of this invention on plant foliage. The following day, the plants are inoculated with a spore suspension of the fungus Erysiphe cichoracearum and incubated in a growth room for 7 days. Disease ratings are then made.

[11] = tested on: adult cotton boll weevils (Anthonomus grandis); experiment: adult cotton boll weevils spray test; format: in vivo; settings: 1% acetone solution, 24 hours
Experimental: Five adult cotton boll weevils (Anthonomus grandis) were confined in a 4-oz. wide mouth jar. These were sprayed with a 1% acetone solution of the indicated compounds. Percent mortality after 24 hours is set forth below.

Phytophthora infestans [12] = format: in vivo; settings: 20 ppm, 4 days
Venturia inaequalis [13] = experiment: apple scab preventive test; format: in vivo; settings: 10-12 days
Experimental: as §1, with “following day, the plants” for “following day, 1/2 inch of simulated rainfall is applied to the foliage of the plants. When the foliage is dry, the plants”, “observed on some of the plants” for “observed on the plants”

Phytophthora infestans [14] = experiment: whole plant or invertebrate; format: in vivo; settings: in Solanum lycopersicum, 96 h, read-out: % control tomato late blight in a photostability test

| SMILES | pest or weed control at 20 ppm [1] [%] | mortality at 1 % [2] [%] | pest or weed control at 20 ppm (Venturia inaequalis [3]) [%] | pest or weed control at 20 ppm (Venturia inaequalis [4]) [%] | pest or weed control at 20 ppm (Erisyphe cichoracearum) [%] | % control Pythium (Pythium) [%] | pest or weed control at 20 ppm (Erysiphe cichoracearum [5]) [%] | pest or weed control at 1500 g/ha (Rhizoctonia solani) [%] | pest or weed control at 20 ppm (Phytophthora infestans [6]) [%] | pest or weed control at 20 ppm (Erysiphe cichoracearum [7]) [%] | pest or weed control at 20 ppm [8] [%] | pest or weed control at 20 ppm [9] [%] | mortality at 1 % (adult houseflies) [%] | pest or weed control at 20 ppm (Erysiphe cichoracearum [10]) [%] | mortality at 1 % [11] [%] | % control tomato late blight in a preventive test (Phytophthora infestans [12]) [%] | pest or weed control at 20 ppm (Venturia inaequalis [13]) [%] | pest or weed control at 20 ppm (Phytophthora infestans [14]) [%] | mortality at 200 ppm [2] [%] |
| --- | --- | --- | --- | --- | --- | --- | --- | --- | --- | --- | --- | --- | --- | --- | --- | --- | --- | --- | --- |
| O=C1CCCN1SN(c1cc(C(F)(F)F)ccc1Cl)c1c([N+](=O)[O-])cc([N+](=O)[O-])cc1C(F)(F)F | 100 | 100 | 50 | 75 | 100 | 50 | 30 | 90 | 50 | 100 | 100 | 100 | 100 | 97 | 100 | – | – | – | – |
| COC(=O)CN(SN(c1cc(C(F)(F)F)ccc1Cl)c1c([N+](=O)[O-])cc([N+](=O)[O-])cc1C(F)(F)F)S(=O)(=O)c1ccc(C)cc1 | 30 | – | 0 | 0 | 0 | 50 | 0 | 50 | 0 | 0 | 25 | 20 | – | 0 | – | 0 | 0 | 0 | – |
| CCCCN(SN(c1cc(C(F)(F)F)ccc1Cl)c1c([N+](=O)[O-])cc([N+](=O)[O-])cc1C(F)(F)F)S(=O)(=O)N(C)C | 100 | 100 | 0 | 100 | 99 | 0 | 98 | 0 | 93 | 100 | 90 | 80 | 100 | 80 | 100 | – | 100 | 90 | – |
| CN(SN(c1cc(C(F)(F)F)ccc1Cl)c1c([N+](=O)[O-])cc([N+](=O)[O-])cc1C(F)(F)F)S(=O)(=O)c1ccc2ccccc2c1 | 100 | 100 | 0 | 100 | 50 | 0 | 85 | 0 | 100 | 100 | 100 | 100 | 100 | 75 | 100 | – | 50 | 100 | – |
| Cc1ccc(S(=O)(=O)N(C)SN(c2c(F)cc(F)cc2F)c2c([N+](=O)[O-])cc([N+](=O)[O-])cc2C(F)(F)F)cc1 | 100 | – | 80 | 100 | 99 | 100 | 100 | 70 | 100 | 100 | 97 | 70 | – | 100 | – | 100 | 100 | 100 | – |
| CN(SN(c1cc(C(F)(F)F)ccc1Cl)c1c([N+](=O)[O-])cc([N+](=O)[O-])cc1C(F)(F)F)S(=O)(=O)c1ccc(Cl)cc1 [4-chloro-N-[N-(2-chloro-5-trifluoromethylphenyl)-N-(2,4-dinitro-6-trifluoromethylphenyl)aminothio]-N-methylbenzenesulfonamide] | – | – | – | – | – | – | – | – | – | – | – | – | – | – | – | – | – | – | 100 |
| COCCN(SN(c1cc(C(F)(F)F)ccc1Cl)c1c([N+](=O)[O-])cc([N+](=O)[O-])cc1C(F)(F)F)S(=O)(=O)c1ccc(C)cc1 [N-[N-[2-chloro-5-(trifluoromethyl)phenyl]-N-[2,4-dinitro-6-trifluoromethylphenyl]aminothio]-N-(2-methoxyethyl)-4-methylbenzenesulfonamide] | – | – | – | – | – | – | – | – | – | – | – | – | – | – | – | – | – | – | 100 |

— patent US4309425A (priority 1980, dated 1982)
